BindingDB's records for doi:10.1016/j.bioorg.2016.01.003 (Panjab University, 2016)

Tests used:
Test in all cases: Radioligand Binding Assay
Adenosine receptor A1 = biological target: T1, Adenosine receptor A1 (Homo sapiens, UniProt P30542)
T1 sequence (P30542 whole entry): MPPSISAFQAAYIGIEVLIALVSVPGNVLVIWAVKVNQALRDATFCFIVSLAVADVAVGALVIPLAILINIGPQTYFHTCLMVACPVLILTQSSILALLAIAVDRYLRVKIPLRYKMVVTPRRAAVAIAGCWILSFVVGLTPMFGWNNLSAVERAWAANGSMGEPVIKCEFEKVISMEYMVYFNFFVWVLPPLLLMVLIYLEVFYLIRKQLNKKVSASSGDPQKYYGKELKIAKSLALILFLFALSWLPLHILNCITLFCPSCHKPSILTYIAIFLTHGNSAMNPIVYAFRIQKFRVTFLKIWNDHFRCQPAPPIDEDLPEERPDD
Procedure: (§1) Dissociation constants at A1, A2A and A3 receptors (Ki-values) were determined in radioligand competition experiments as reported earlier [19,20]. All binding experiments were done in a microplate format utilizing a 96-well microplate filtration system (Millipore Multiscreen MAFC). As radioligands the agonists [3H]CCPA (1 nM) for A1, [3H]NECA (10 nM) for A2A, and [3H]HEMADO (1 nM) for A3 receptors were used. Samples were incubated with 10 µg of membrane protein for 3 h at 25 °C, filtered through the built-in filter at the bottom of the wells and washed three times with […] of ice-cold binding buffer. After addition of 20 µl of scintillator to the dried filter plates samples were counted in a Wallac Micro-Beta counter. Nonspecific binding was determined in the presence of 1 mM theophylline ([3H]CCPA) or […] (N6-phenylisopropyladenosine; [3H]NECA and [3H] HEMADO).

Adenosine receptor A2a = Adenosine receptor A2a (Homo sapiens, UniProt P29274)
Procedure: as §1

Adenosine receptor A2b = biological target: T2, Adenosine receptor A2b (Homo sapiens, UniProt P29275)
T2 sequence (P29275 whole entry): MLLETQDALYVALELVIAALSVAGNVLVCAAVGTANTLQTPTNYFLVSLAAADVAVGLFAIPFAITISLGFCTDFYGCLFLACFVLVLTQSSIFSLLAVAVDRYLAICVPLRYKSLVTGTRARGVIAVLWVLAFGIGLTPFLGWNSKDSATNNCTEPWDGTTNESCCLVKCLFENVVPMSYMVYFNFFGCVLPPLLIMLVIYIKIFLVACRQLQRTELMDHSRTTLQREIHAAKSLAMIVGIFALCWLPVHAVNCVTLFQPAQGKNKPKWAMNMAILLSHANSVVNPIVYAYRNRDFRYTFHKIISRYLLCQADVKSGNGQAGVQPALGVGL

Adenosine receptor A2a, sequence (P29274 whole entry): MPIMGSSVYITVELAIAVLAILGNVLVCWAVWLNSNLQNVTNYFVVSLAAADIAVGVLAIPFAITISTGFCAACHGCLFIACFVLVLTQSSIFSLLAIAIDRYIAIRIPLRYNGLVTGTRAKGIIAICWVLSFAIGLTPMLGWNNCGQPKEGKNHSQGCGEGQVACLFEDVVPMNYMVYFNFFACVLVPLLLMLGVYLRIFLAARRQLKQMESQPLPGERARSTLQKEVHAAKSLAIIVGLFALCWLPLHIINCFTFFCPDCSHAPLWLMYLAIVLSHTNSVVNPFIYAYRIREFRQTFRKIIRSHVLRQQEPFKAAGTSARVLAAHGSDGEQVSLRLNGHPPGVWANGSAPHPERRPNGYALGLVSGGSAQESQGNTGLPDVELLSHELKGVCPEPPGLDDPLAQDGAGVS

For `COC(=O)COc1cccc(-c2nc3c([nH]2)c(=O)n(C)c(=O)n3C)c1` [1,3-Dimethyl-8-[3-(2-methoxy-2-oxoethoxy)-phenyl]xanthine (14, RB-374)], the Ki (Adenosine receptor A1) was 3.95 µM, the Ki (Adenosine receptor A2a) was 0.375 µM and the Ki (Adenosine receptor A2b) was greater than 10 µM.

For `COc1cc(-c2nc3c([nH]2)c(=O)n(C)c(=O)n3C)ccc1OCC(=O)N1CCN(C)CC1` [1,3-Dimethyl-8-[3-methoxy-4-{2-(1-methylpiperazin-4-yl)-2-oxoethoxy}-phenyl]-xanthine (15g, RB-446)], the Ki (Adenosine receptor A1) was greater than 30 µM, the Ki (Adenosine receptor A2a) was 4.21 µM and the Ki (Adenosine receptor A2b) was greater than 10 µM.

For `COc1cc(-c2nc3c([nH]2)c(=O)n(C)c(=O)n3C)ccc1OCC(=O)N1CCOCC1` [1,3-Dimethyl-8-[3-methoxy-4-{2-(morpholin-1-yl)-2-oxoethoxy}-phenyl]xanthine (15f, RB-385)], the Ki (Adenosine receptor A1) was greater than 30 µM, the Ki (Adenosine receptor A2a) was 2.74 µM and the Ki (Adenosine receptor A2b) was greater than 30 µM.

`COc1cc(-c2nc3c([nH]2)c(=O)n(C)c(=O)n3C)ccc1OCC(=O)N1CCCCC1` [1,3-Dimethyl-8-[3-methoxy-4-{2-(piperidin-1-yl)-2-oxoethoxy}-phenyl]xanthine (15d, RB-391)] was tested, and the Ki (Adenosine receptor A1) was greater than 30 µM, the Ki (Adenosine receptor A2a) was 3.35 µM and the Ki (Adenosine receptor A2b) was greater than 10 µM.

With `COc1cc(-c2nc3c([nH]2)c(=O)n(C)c(=O)n3C)ccc1OCC(=O)N1CCCC1` [1,3-Dimethyl-8-[3-methoxy-4-{2-(pyrrolidin-1-yl)-2-oxoethoxy}-phenyl]xanthine (15c, RB-392)] the Ki (Adenosine receptor A1) was greater than 30 µM, the Ki (Adenosine receptor A2a) was 4.57 µM and the Ki (Adenosine receptor A2b) was greater than 30 µM.

Compound `CN1CCN(C(=O)COc2cccc(-c3nc4c([nH]3)c(=O)n(C)c(=O)n4C)c2)CC1` [1,3-Dimethyl-8-[3-{2-(1-methylpiperazin-4-yl)-2-oxoethoxy}-phenyl]xanthine (14g, RB-380)] has a Ki (Adenosine receptor A1) of 1.9 µM, a Ki (Adenosine receptor A2a) of 0.561 µM and a Ki (Adenosine receptor A2b) of 8.21 µM.

With `CN(C)CCNC(=O)COc1cccc(-c2nc3c([nH]2)c(=O)n(C)c(=O)n3C)c1` [1,3-Dimethyl-8-[3-{2-(dimethylaminoethylamino)-2-oxoethoxy}-phenyl]xanthine (14a, RB-379)] the Ki (Adenosine receptor A1) was 0.683 µM, the Ki (Adenosine receptor A2a) was 0.163 µM and the Ki (Adenosine receptor A2b) was 2.83 µM.

In the case of `Cn1c(=O)c2[nH]c(-c3cccc(OCC(=O)N4CCCCCC4)c3)nc2n(C)c1=O` [1,3-Dimethyl-8-[3-{2-(hexamethyleneimin-1-yl)-2-oxoethoxy}-phenyl]xanthine (14e, RB-376)], the Ki (Adenosine receptor A1) is reported as 2.43 µM, the Ki (Adenosine receptor A2a) is reported as 0.226 µM and the Ki (Adenosine receptor A2b) is reported as 6.28 µM.

Compound `COc1ccc(CCNC(=O)COc2cccc(-c3nc4c([nH]3)c(=O)n(C)c(=O)n4C)c2)cc1OC` [1,3-Dimethyl-8-[3-{2-(homoveratrylamino)-2-oxoethoxy}-phenyl]xanthine (14i, RB-377)] has a Ki (Adenosine receptor A1) of 5.98 µM, a Ki (Adenosine receptor A2a) of 1.39 µM and a Ki (Adenosine receptor A2b) greater than 10 µM.

`Cn1c(=O)c2[nH]c(-c3cccc(OCC(=O)n4ccnc4)c3)nc2n(C)c1=O` [1,3-Dimethyl-8-[3-{2-(imidazol-1-yl)-2-oxoethoxy}-phenyl]xanthine (14h, RB-445)] gave a Ki (Adenosine receptor A1) greater than 30 µM, a Ki (Adenosine receptor A2a) of 0.509 µM and a Ki (Adenosine receptor A2b) greater than 30 µM.

Compound `Cn1c(=O)c2[nH]c(-c3cccc(OCC(=O)N4CCOCC4)c3)nc2n(C)c1=O` [1,3-Dimethyl-8-[3-{2-(morpholin-1-yl)-2-oxoethoxy}-phenyl]xanthine (14f, RB-375)] has a Ki (Adenosine receptor A1) of 5.37 µM, a Ki (Adenosine receptor A2a) of 0.679 µM and a Ki (Adenosine receptor A2b) greater than 10 µM.

With `Cn1c(=O)c2[nH]c(-c3cccc(OCC(=O)N4CCCCC4)c3)nc2n(C)c1=O` [1,3-Dimethyl-8-[3-{2-(piperidin-1-yl)]-2-oxoethoxy}-phenyl]xanthine (14d, RB-382)] the Ki (Adenosine receptor A1) was 1.52 µM, the Ki (Adenosine receptor A2a) was 0.209 µM and the Ki (Adenosine receptor A2b) was 4.04 µM.

`Cn1c(=O)c2[nH]c(-c3cccc(OCC(=O)N4CCCC4)c3)nc2n(C)c1=O` [1,3-Dimethyl-8-[3-{2-(pyrrolidin-1-yl)-2-oxoethoxy}-phenyl]xanthine (14c, RB-381)] was tested, and the Ki (Adenosine receptor A1) was 3.29 µM, the Ki (Adenosine receptor A2a) was 0.237 µM and the Ki (Adenosine receptor A2b) was greater than 10 µM.

For `COC(=O)COc1ccc(-c2nc3c([nH]2)c(=O)n(C)c(=O)n3C)cc1` [1,3-Dimethyl-8-[4-(2-methoxy-2-oxoethoxy)-phenyl]xanthine (13, RB-419)], the Ki (Adenosine receptor A1) was 0.319 µM, the Ki (Adenosine receptor A2a) was 0.17 µM and the Ki (Adenosine receptor A2b) was 0.98 µM.

With `COc1ccc(-c2nc3c([nH]2)c(=O)n(C)c(=O)n3C)cc1OCC(=O)N1CCN(C)CC1` [1,3-Dimethyl-8-[4-methoxy-3-{2-(1-methylpiperazin-4-yl)-2-oxo-ethoxy}-phenyl]xanthine (16g, RB-416)] the Ki (Adenosine receptor A1) was 3.64 µM, the Ki (Adenosine receptor A2a) was 0.685 µM and the Ki (Adenosine receptor A2b) was 6.54 µM.

`COc1ccc(-c2nc3c([nH]2)c(=O)n(C)c(=O)n3C)cc1OCC(=O)N1CCCCC1` [1,3-Dimethyl-8-[4-methoxy-3-{2-(piperidin-1-yl)-2-oxoethoxy}-phenyl]xanthine (16d, RB-417)] showed a Ki (Adenosine receptor A1) of 1.62 µM, a Ki (Adenosine receptor A2a) of 0.076 µM and a Ki (Adenosine receptor A2b) greater than 10 µM.

`COc1ccc(-c2nc3c([nH]2)c(=O)n(C)c(=O)n3C)cc1OCC(=O)N1CCCC1` [1,3-Dimethyl-8-[4-methoxy-3-{2-(pyrrolidin-1-yl)-2-oxoethoxy}-phenyl]xanthine (16c, RB-414)] gave a Ki (Adenosine receptor A1) of 5.94 µM, a Ki (Adenosine receptor A2a) of 0.259 µM and a Ki (Adenosine receptor A2b) greater than 10 µM.

With `COc1ccc(-c2nc3c([nH]2)c(=O)n(C)c(=O)n3C)cc1OCC(=O)N1CCOCC1` [1,3-Dimethyl-8-[4-methoxy-3-{(2-(morpholin-1-yl)-2-oxoethoxy}-phenyl]-xanthine (16f, RB-415)] the Ki (Adenosine receptor A1) was 3.51 µM, the Ki (Adenosine receptor A2a) was 0.466 µM and the Ki (Adenosine receptor A2b) was greater than 10 µM.

`CN(C)CCNC(=O)COc1ccc(-c2nc3c([nH]2)c(=O)n(C)c(=O)n3C)cc1` [1,3-Dimethyl-8-[4-{2-(dimethylaminoethylamino)-2-oxoethoxy}-phenyl]xanthine (13a, RB-420)] showed a Ki (Adenosine receptor A1) of 0.22 µM, a Ki (Adenosine receptor A2a) of 0.1 µM and a Ki (Adenosine receptor A2b) of 0.903 µM.

In the case of `Cn1c(=O)c2[nH]c(-c3ccc(OCC(=O)N4CCCCCC4)cc3)nc2n(C)c1=O` [1,3-Dimethyl-8-[4-{2-(hexamethyleneimin-1-yl)-2-oxoethoxy}-phenyl]xanthine (13e, RB-424)], the Ki (Adenosine receptor A1) is reported as 0.609 µM, the Ki (Adenosine receptor A2a) is reported as 0.273 µM and the Ki (Adenosine receptor A2b) is reported as 0.443 µM.

`Cn1c(=O)c2[nH]c(-c3ccc(OCC(=O)N4CCCCC4)cc3)nc2n(C)c1=O` [1,3-Dimethyl-8-[4-{2-(piperidin-1-yl)-2-oxoethoxy}-phenyl]xanthine (13d, RB-427)] was tested, and the Ki (Adenosine receptor A1) was 0.419 µM, the Ki (Adenosine receptor A2a) was 0.178 µM and the Ki (Adenosine receptor A2b) was 0.401 µM.

`Cn1c(=O)c2[nH]c(-c3ccc(OCC(=O)N4CCCC4)cc3)nc2n(C)c1=O` [1,3-Dimethyl-8-[4-{2-(pyrrolidin-1-yl)-2-oxoethoxy}-phenyl]xanthine (13c, RB-426)] was tested, and the Ki (Adenosine receptor A1) was 0.796 µM, the Ki (Adenosine receptor A2a) was 0.122 µM and the Ki (Adenosine receptor A2b) was 1.49 µM.

With `COc1ccc(-c2nc3c([nH]2)c(=O)n(C)c(=O)n3C)cc1OCC(=O)NCCN(C)C` [1,3-Dimethyl-8-[{3-(2-(dimethylaminoethylamino)-2-oxoethoxy)-4-methoxy}-phenyl]-xanthine (16a, RB-413)] the Ki (Adenosine receptor A1) was 0.847 µM, the Ki (Adenosine receptor A2a) was 0.075 µM and the Ki (Adenosine receptor A2b) was 4.8 µM.

`COc1ccc(-c2nc3c([nH]2)c(=O)n(C)c(=O)n3C)cc1OCC(=O)N1CCCCCC1` [1,3-Dimethyl-8-[{3-(2-(hexamethyleneimin-1-yl)-2-oxoethoxy)-4-methoxy}-phenyl]xanthine (16e, RB-449)] was tested, and the Ki (Adenosine receptor A1) was 1.91 µM, the Ki (Adenosine receptor A2a) was 0.094 µM and the Ki (Adenosine receptor A2b) was 3.94 µM.

With `COc1ccc(CCNC(=O)COc2cc(-c3nc4c([nH]3)c(=O)n(C)c(=O)n4C)ccc2OC)cc1OC` [1,3-Dimethyl-8-[{3-(2-(homoveratrylamino)-2-oxoethoxy)-4-methoxy}-phenyl]xanthine (16i, RB-412)] the Ki (Adenosine receptor A1) was greater than 30 µM, the Ki (Adenosine receptor A2a) was 0.772 µM and the Ki (Adenosine receptor A2b) was greater than 30 µM.

For `COC(=O)COc1cc(-c2nc3c([nH]2)c(=O)n(C)c(=O)n3C)ccc1OC` [1,3-Dimethyl-8-[{3-(2-methoxy-2-oxoethoxy)-4-methoxy}-phenyl]xanthine (16, RB-410)], the Ki (Adenosine receptor A1) was 11.8 µM, the Ki (Adenosine receptor A2a) was 0.717 µM and the Ki (Adenosine receptor A2b) was greater than 10 µM.

Work on `COc1cc(-c2nc3c([nH]2)c(=O)n(C)c(=O)n3C)ccc1OCC(=O)NCCN(C)C` [1,3-Dimethyl-8-[{4-(2-(dimethylaminoethylamino)-2-oxoethoxy)-3-methoxy}-phenyl]xanthine (15a, RB-386)] yielded a Ki (Adenosine receptor A1) of 9.25 µM, a Ki (Adenosine receptor A2a) of 0.821 µM and a Ki (Adenosine receptor A2b) of 10 µM.

`COc1cc(-c2nc3c([nH]2)c(=O)n(C)c(=O)n3C)ccc1OCC(=O)N1CCCCCC1` [1,3-Dimethyl-8-[{4-(2-(hexamethyleneimin-1-yl)-2-oxoethoxy)-3-methoxy}-phenyl]xanthine (15e, RB-387)] was tested, and the Ki (Adenosine receptor A1) was greater than 10 µM, the Ki (Adenosine receptor A2a) was 2.41 µM and the Ki (Adenosine receptor A2b) was 7.82 µM.

`COc1ccc(CCNC(=O)COc2ccc(-c3nc4c([nH]3)c(=O)n(C)c(=O)n4C)cc2OC)cc1OC` [1,3-Dimethyl-8-[{4-(2-(homoveratrylamino)-2-oxoethoxy)-3-methoxy}-phenyl]-xanthine (15i, RB-389)] was tested, and the Ki (Adenosine receptor A1) was greater than 30 µM, the Ki (Adenosine receptor A2a) was 0.843 µM and the Ki (Adenosine receptor A2b) was greater than 30 µM.
